Measured values as given in patent US8987262B2, “Use of a beta blocker for the manufacture of a medicament for the treatment of hemangiomas” (Universite de Bordeaux, priority 2007, dated 2015).
Read-outs that look alike come from different tables or passages of the source.

Experiments:
subglottic hemangioma = settings: cited from earlier work
[1] = system: infantile capillary hemangiomas (IH); assay: Treatment of infants with infantile hemangioma (case reports, Examples 1-3)
IH = settings: in vivo; cited from earlier work
infantile hemangiomas = settings: cited from earlier work
HIF-1alpha and VEGF = settings: pressure-overloaded rat heart; cited from earlier work
head and neck IH = settings: oral suspension up to 4 mg/kg/day, 24 weeks; cited from earlier work
cleaved caspase-3 and 8 = assay: Immuno-histochemical analysis of IH biopsy with anti-cleaved caspase-3 and 8 antibodies; set-up: species or system human; settings: Example 2, arm biopsy at 3 months of age
Description: Prednisolone treatment was progressively tapered down while the IH continued to improve. At 3 months of age a biopsy sample was obtained on the arm, showing a typical IH.
Reintroduction of propranolol treatment at 2 mg/kg/day was successful after only 24 hours.

[2] = Case 1, 8 mg/kg/day, stenosis at referral 90%
[3] = Case 2, 8 mg/kg/day, stenosis at referral 70%
[4] = Case 3, 8 mg/kg/day, stenosis at referral 90%
[5] = Case 4, 3 mg/kg/day, stenosis at referral 90%

## CCCC(=O)Nc1ccc(OCC(O)CNC(C)C)c(C(C)=O)c1 (centres unmarked) [Acebutolol]
Subglottic hemangioma; 8 mg/kg/day
  overall result of study: able to treat hemangiomas
Subglottic hemangioma; [2]
  Beta-blocker efficiency: Failure
  Laryngeal stenosis during beta-blocker treatment (%): 90%
Subglottic hemangioma; [3]
  Beta-blocker efficiency: success
  Laryngeal stenosis during beta-blocker treatment (%): 10%
Subglottic hemangioma; [4]
  Beta-blocker efficiency: success
  Laryngeal stenosis during beta-blocker treatment (%): 5%

## C[C@]12C=CC(=O)C=C1CC[C@@H]1[C@@H]2[C@@H](O)C[C@@]2(C)[C@H]1CC[C@]2(O)C(=O)CO [prednisolone]
Subglottic hemangioma; Case 1, before beta-blocker treatment, (2 mg/kg/day)
  CS efficiency: CS-persistant
Subglottic hemangioma; Case 2, before beta-blocker treatment, (1 mg/kg/day)
  CS efficiency: CS-dependent
Subglottic hemangioma; Case 3, before beta-blocker treatment, (1 mg/kg/day)
  CS efficiency: CS-dependent
Subglottic hemangioma; Case 4, before beta-blocker treatment, (1.5 mg/kg/day)
  CS efficiency: CS-dependent
[1]; Example 1, one-month treatment at 3 mg/kg/day
  effect on hemangioma: stabilized, but nasal necrosis progressed
[1]; Example 2, 3 mg/kg/day 2 weeks then 5 mg/kg/day 2 weeks
  effect on IH: continued to enlarge

## CC[C@]1(O)C[C@H]2CN(CCc3c([nH]c4ccccc34)[C@@](C(=O)OC)(c3cc4c(cc3OC)N(C=O)[C@H]3[C@@](O)(C(=O)OC)[C@H](OC(C)=O)[C@]5(CC)C=CCN6CC[C@]43[C@@H]65)C2)C1 [vincristine]
IH
  well-known downsides: peripheral neuropathy, constipation, and hematologic toxicity

## CC(C)(C)NC[C@H](O)COc1nsnc1N1CCOCC1 [Timolol, timolol]
Infantile hemangiomas; Age at treatment inititation (mos) <6
  Mean VAS ± Standard deviation: 45 ± 27
Infantile hemangiomas; Age at treatment inititation (mos) >6
  Mean VAS ± Standard deviation: 47 ± 30
Infantile hemangiomas; Depth of hemangioma: Deep
  Mean VAS ± Standard deviation: 32 ± 28
Infantile hemangiomas; Depth of hemangioma: Superficial
  Mean VAS ± Standard deviation: 53 ± 29
Infantile hemangiomas; Location: Facial
  Mean VAS ± Standard deviation: 45 ± 29
Infantile hemangiomas; Location: Nonfacial
  Mean VAS ± Standard deviation: 43 ± 32
Infantile hemangiomas; Timolol concentration (%) 0.1
  Mean VAS ± Standard deviation: 24 ± 29
Infantile hemangiomas; Timolol concentration (%) 0.5
  Mean VAS ± Standard deviation: 48 ± 28
Infantile hemangiomas; Treatment duration (mos) <3
  Mean VAS ± Standard deviation: 38 ± 28
Infantile hemangiomas; Treatment duration (mos) >3
  Mean VAS ± Standard deviation: 52 ± 30
Infantile hemangiomas; timolol maleate 0.1% or 0.5% gel-forming solution
  overall result of study: able to treat hemangiomas

## COc1ccccc1OCCNCC(O)COc1cccc2[nH]c3ccccc3c12 (centres unmarked) [cardivedilol]
HIF-1alpha and VEGF
  effect on HIF-1alpha and VEGF protein and mRNA: reverses both protein and mRNA of HIF-1alpha and VEGF to the baseline values

## CC(C)(C)NCC(O)COc1cccc2c1CC(O)C(O)C2 (centres unmarked) [nadolol]
Head and neck IH
  overall result of study: able to treat efficiently hemangiomas

## CC(C)NCC(O)COc1cccc2ccccc12 (racemic) [propranolol]
Cleaved caspase-3 and 8
  cleaved caspase-3 and 8 immunostaining (proapoptotic role): did not demonstrate positive immunostaining
Subglottic hemangioma; [5]
  Beta-blocker efficiency: success
  Laryngeal stenosis during beta-blocker treatment (%): 5%
[1]; Example 1, baby, nasal pyramid IH, 3 mg/kg/day, the day after onset
  change of the hemangioma after onset of treatment: changed in color from intense red to purple, and softened
[1]; Example 1, still under propranolol
  aspect of the IH: completely flat
[1]; Example 2, 2 mg/kg/d
  parotidal and axillary subcutaneous hemangiomatous components: not palpable
[1]; Example 2, 2 mg/kg/day
  time to softening of the lesions after onset: 12 h
  time to success after reintroduction of treatment: 24 h
[1]; Example 2, 2 mg/kg/day, seven days after onset
  change in size of hemangioma: dramatic reduction in size of the subcutaneous component of the hemangioma
[1]; Example 2, 3-day interruption, superior eyelid and parotidal areas
  effect of treatment interruption: mild increase in size of the hemangioma
[1]; Example 2, stopped
  outcome after treatment stopped: without any re-growth of the IH
[1]; Example 3, 7 days after onset, 2 mg/kg/day
  hemodynamic modifications: without any hemodynamic modifications
[1]; Example 3, 7 days after onset, versus 12 mm before
  IH thickness (ultrasonography): 6 mm
[1]; Example 3, 7 days after onset, versus 32 mm before
  IH diameter (ultrasonography): 21 mm
[1]; Example 3, periocular IH, 2 mg/kg/day
  time to flattening of the lesion: 12 h
[1]; Example 3, stopped after one month
  outcome after treatment stopped: novel increase in size of the IH
[1]; Example 3, stopped at 8 months
  outcome after treatment stopped: without any rebound of the hemangioma
[1]; Example 3, treatment resumed
  aspect of the IH: flat and had faded in color
[1]; all treated children (Examples 1-3 and seven other)
  treatment failure: No treatment failure

## C[C@H]1C[C@H]2[C@@H]3CCC4=CC(=O)C=C[C@]4(C)[C@@]3(F)[C@@H](O)C[C@]2(C)[C@@]1(O)C(=O)CO [betamethasone]
[1]; Example 1, under systemic steroid
  cardiac sonography finding: obstructive hypertrophic myocardiopathy
